Measurements published in patent US20080107603A1, “Neuroprotectant methods, compositions, and screening methods thereof” (priority 2002, published 2008).
Read-outs that look alike come from different tables or passages of the source.

How the values were obtained:
NF-κB = test: EMSA, Aβ25-35-induced NF-κB DNA binding activity; format: cell-based, Rat; conditions: 25 μM Aβ25-35 for 1 h; EGT pretreatment (0.5 mM, 1 mM)
Experimental: To explore the molecular mechanisms underlying the protective effect of L-ergothioneine against Aβ25-35-induced nitrosative cell death, the activation of NF-κB was assessed by EMSA using an oligonucleotide containing a consensus κB binding element. After treatment with 25 μM Aβ25-35 for 1 h in the absence or presence of L-ergothioneine, PC12 cells (1×10^7 cells/7 ml in 100φ dish) were washed with PBS, centrifuged, and resuspended in ice-cold isotonic buffer A [10 mM HEPES, pH 7.9, 1.5 mM MgCl2, 10 mM KCl, 0.5 mM dithiothreitol (DTT) and 0.2 mM phenylmethylsulfonyl fluoride (PMSF)]. Following incubation in an ice bath for 10 min, cells were centrifuged again and resuspended in ice-cold buffer C containing 20 mM HEPES (pH 7.9), 20% glycerol, 420 mM […], 1.5 mM MgCl2, 0.2 mM EDTA, 0.5 mM DTT and 0.2 mM PMSF followed by incubation at 0° C. for 20 min. After vortex-mixing, the resulting suspension was centrifuged, and the supernatant was stored at −70° C. for the NF-κB DNA binding assay. The protein concentration was determined by using the BCA protein assay kit.
Synthetic double strand oligonucleotide containing the NF-κB binding domain was labeled with [γ-^32P]ATP using T4 polynucleotide kinase and separated from unincorporated [γ-^32P]ATP by gel filtration using a nick spin column (Phamacia Biotech, Bjorkgatan, Sweden). […]

PC12 cells = test: TUNEL, Aβ25-35-induced apoptosis; format: cell-based, Rat; conditions: 25 μM Aβ25-35, 36 h; EGT at 0.5 mM or 1 mM
Experimental: The commercially available in situ death detection kit (Boehringer Mannheim product, Manheim, Germany) was utilized to detect DNA fragmentation. The PC12 cells (5×10^5 cells/1.5 ml in chamber slide) were fixed for 30 min in 10% neutral buffered-formalin solution at room temperature. Endogenous peroxidase was inactivated by incubation with 0.3% (v/v) hydrogen peroxide in methanol for 30 min at room temperature and further incubated in a permeabilizing solution (0.1% sodium citrate and 0.1% Triton X-100) for 2 min at 4° C. The cells were labeled by incubation with the TUNEL reaction mixture for 60 min at 37° C. followed by labeling with peroxidase-conjugated anti-fluorescein anti-goat antibody (Fab fragment) for additional 30 min. After staining with diaminobenzidine for 10 min, cells were rinsed with phosphate-buffered saline (PBS) and mounted with 50% glycerol.

[1] = Man; cited from earlier work
[2] = Cat; cited from earlier work

C[N+](C)(C)[C@@H](Cc1c[nH]c(=S)[nH]1)C(=O)[O-] [L-ergothioneine, 2-mercaptohistidine trimethylbetaine]
NF-κB DNA binding (NF-κB): inhibited
proportion of TUNEL-positive cells (PC12 cells): lowered the proportion of TUNEL-positive cells
L-Ergothioneine Concentration (mg/100 ml blood) [1]: 1-4 mg/100 ml blood
L-Ergothioneine Concentration (mg/100 ml blood) [2]: 0.5-2 mg/100 ml blood
